Reference: US20230278995A1, “1,3,4-OXADIAZOLE DERIVATIVE COMPOUNDS AS HISTONE DEACETYLASE 6 INHIBITOR, AND THE PHARMACEUTICAL COMPOSITION COMPRISING THE SAME” (CHONG KUN DANG PHARMACEUTICAL CORP., priority 2020, published 2023)

Legend:
human recombinant HDAC6 = molecular target: T1, human recombinant HDAC6 (Homo sapiens, UniProt Q9UBN7); assay: HDAC enzyme activity inhibition assay (HDAC Fluorimetric Drug Discovery Kit), HDAC6; type: biochemical; conditions: for HDAC6 selectivity (fold): HDAC1 vs HDAC6; for IC50: human recombinant HDAC6, same protocol as HDAC1
T1 construct: purchased Calbiochem Inc. 382180
T1 sequence (Q9UBN7 1-1215): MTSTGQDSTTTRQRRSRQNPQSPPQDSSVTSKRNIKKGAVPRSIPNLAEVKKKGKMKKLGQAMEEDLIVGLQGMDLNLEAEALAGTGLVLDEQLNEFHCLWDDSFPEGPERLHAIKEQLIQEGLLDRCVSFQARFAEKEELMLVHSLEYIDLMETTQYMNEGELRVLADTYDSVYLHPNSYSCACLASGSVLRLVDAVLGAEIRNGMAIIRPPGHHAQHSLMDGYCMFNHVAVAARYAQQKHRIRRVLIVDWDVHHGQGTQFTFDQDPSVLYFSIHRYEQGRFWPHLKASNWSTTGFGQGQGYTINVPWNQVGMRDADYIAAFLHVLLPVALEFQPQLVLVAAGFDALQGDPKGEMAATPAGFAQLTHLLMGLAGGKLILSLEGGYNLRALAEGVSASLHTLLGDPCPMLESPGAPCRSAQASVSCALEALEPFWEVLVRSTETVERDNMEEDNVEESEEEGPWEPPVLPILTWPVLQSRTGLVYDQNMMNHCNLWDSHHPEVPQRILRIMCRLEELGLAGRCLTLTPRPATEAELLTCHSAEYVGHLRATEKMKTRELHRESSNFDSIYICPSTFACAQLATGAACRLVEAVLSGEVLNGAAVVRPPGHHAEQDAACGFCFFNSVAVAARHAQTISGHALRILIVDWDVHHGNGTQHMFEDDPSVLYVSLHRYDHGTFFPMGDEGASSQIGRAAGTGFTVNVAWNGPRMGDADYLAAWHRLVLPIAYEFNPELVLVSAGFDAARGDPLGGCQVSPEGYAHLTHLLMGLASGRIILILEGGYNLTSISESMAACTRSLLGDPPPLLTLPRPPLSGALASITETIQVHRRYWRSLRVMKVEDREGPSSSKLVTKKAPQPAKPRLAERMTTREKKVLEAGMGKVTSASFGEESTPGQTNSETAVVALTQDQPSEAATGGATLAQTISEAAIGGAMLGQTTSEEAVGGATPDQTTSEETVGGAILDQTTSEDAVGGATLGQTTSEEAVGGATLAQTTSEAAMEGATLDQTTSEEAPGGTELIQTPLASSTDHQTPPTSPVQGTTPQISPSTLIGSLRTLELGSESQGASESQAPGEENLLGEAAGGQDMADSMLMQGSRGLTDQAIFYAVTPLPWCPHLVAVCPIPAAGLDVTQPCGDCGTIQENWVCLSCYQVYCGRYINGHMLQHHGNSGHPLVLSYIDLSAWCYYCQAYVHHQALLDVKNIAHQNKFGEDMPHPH
Method: (§1) For the HDAC1 enzyme activity test, human recombinant HDAC1 (BML-SE456) was used as an enzyme source and Fluor de Lys©-SIRT1 (BNL-K1177) was used as a substrate. After dispensing 5-fold diluted compounds into a 96-well plate, 0.3 μg of enzyme and 10 μM substrate were added to each well of the plate and allowed to react at 30° C. for 60 minutes. Next, Fluor de Lys© Developer II (BML-K1176) was added and reacted for 30 minutes to complete the reaction, and then the fluorescence values (Ex 360, Em 460) were measured using a multi-plate reader (Flexstation 3, Molecular Device). The HDAC6 enzymes were tested using human recombinant HDAC6 (382180) from Calbiochem Inc., according to the same protocol as the HDAC1 enzyme activity test method. With respect to the final result values, respective IC50 values were calculated using GraphPad Prism 4.0 program (Table 2).

human recombinant HDAC1 = molecular target: T2, human recombinant HDAC1 (Homo sapiens, UniProt Q13547); assay: HDAC enzyme activity inhibition assay (HDAC Fluorimetric Drug Discovery Kit), HDAC1; type: biochemical; conditions: human recombinant HDAC1, Fluor de Lys-SIRT1 substrate, 30° C. 60 minutes
T2 construct: purchased Enzo Life Sciences, Inc. BML-SE456
T2 sequence (Q13547 whole entry): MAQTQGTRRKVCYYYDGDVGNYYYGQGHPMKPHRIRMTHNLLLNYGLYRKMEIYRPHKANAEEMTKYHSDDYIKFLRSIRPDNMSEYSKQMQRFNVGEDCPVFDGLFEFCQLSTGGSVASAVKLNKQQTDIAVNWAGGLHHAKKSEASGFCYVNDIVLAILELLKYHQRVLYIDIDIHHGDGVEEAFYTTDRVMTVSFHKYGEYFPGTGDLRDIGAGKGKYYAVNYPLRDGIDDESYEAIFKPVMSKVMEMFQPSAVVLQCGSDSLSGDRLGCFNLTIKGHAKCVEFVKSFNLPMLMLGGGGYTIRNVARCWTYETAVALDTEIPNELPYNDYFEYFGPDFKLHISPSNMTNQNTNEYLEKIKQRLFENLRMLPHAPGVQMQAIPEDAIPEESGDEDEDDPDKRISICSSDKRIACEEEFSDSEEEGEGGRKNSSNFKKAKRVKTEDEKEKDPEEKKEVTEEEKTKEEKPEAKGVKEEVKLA
Method: as §1

Row | Compound | HDAC6 selectivity (fold) (human recombinant HDAC6) | IC50 (human recombinant HDAC6) [nM] | IC50 (human recombinant HDAC1) [nM]
1 | O=C(N(Cc1ccc(-c2nnc(C(F)F)o2)cn1)c1cccc(F)c1)C1(F)CN(CC2CCCCC2)C1 [Compound 3171, 1-(cyclohexylmethyl)-N-((5-(5-(difluoromethyl)-1,3,4-oxadiazol-2-yl)pyridin-2-yl)methyl)-3-fluoro-N-(3-fluorophenyl)azetidine-3-carboxamide] | 741 fold | 67.4 | > 50000
2 | CCCCN1CC(N2CC(F)(C(=O)N(Cc3ccc(-c4nnc(C(F)F)o4)cn3)c3cccc(F)c3)C2)C1 [Compound 3222, 1′-butyl-N-((5-(5-(difluoromethyl)-1,3,4-oxadiazol-2-yl)pyridin-2-yl)methyl)-3-fluoro-N-(3-fluorophenyl)-[1,3′-biazetidine]-3-carboxamide] | 1,420 fold | 35.2 | > 50000
3 | CC(C)N1CCC(F)(C(=O)N(Cc2ccc(-c3nnc(C(F)F)o3)cn2)c2cccc(F)c2)CC1 [Compound 2970, N-((5-(5-(difluoromethyl)-1,3,4-oxadiazol-2-yl)pyridin-2-yl)methyl)-4-fluoro-N-(3-fluorophenyl)-1-isopropylpiperidine-4-carboxamide] | 1,046 fold | 47.8 | > 50000
4 | O=C(N(Cc1ccc(-c2nnc(C(F)F)o2)cn1)c1cccc(F)c1)C1(F)CN(C2CN(C3CCCC3)C2)C1 [Compound 3396, 1′-cyclopentyl-N-((5-(5-(difluoromethyl)-1,3,4-oxadiazol-2-yl)pyridin-2-yl)methyl)-3-fluoro-N-(3-fluorophenyl)-[1,3′-biazetidine]-3-carboxamide] | 1,618 fold | 19.5 | 31600
5 | O=C(N(Cc1ccc(-c2nnc(C(F)F)o2)cn1)c1cccc(F)c1)C1(F)CN(C2COC2)C1 [Compound 3050, N-((5-(5-(difluoromethyl)-1,3,4-oxadiazol-2-yl)pyridin-2-yl)meth 1)-3-fluoro-N-(3-fluorophenyl)-1-(oxetan-3-yl)azetidine-3-carboxamide] | 683 fold | 73.2 | > 50000
6 | O=C(N(Cc1ccc(-c2nnc(C(F)F)o2)cn1)c1cccc(F)c1)C1(F)CN(CC2CCOCC2)C1 [Compound 3218] | 1,187 fold | 42.1 | > 50000
7 | O=C(N(Cc1ccc(-c2nnc(C(F)F)o2)cn1)c1cccc(F)c1)C1(F)CN(C2CCN(C3CCCC3)CC2)C1 [Compound 3407, 1-(1-cyclopentylpiperidin-4-yl)-N-((5-(5-(difluoromethyl)-1,3,4-oxadiazol-2-yl)pyridin-2-yl)methyl)-3-fluoro-N-(3-fluorophenyl)azetidine-3-carboxamide] | 2,581 fold | 18.6 | 48000
8 | CN1CC(N2CCC(F)(C(=O)N(Cc3ccc(-c4nnc(C(F)F)o4)cn3)c3cccc(F)c3)CC2)C1 [Compound 3389, N-((5-(5-(difluoromethyl)-1,3,4-oxadiazol-2-yl)pyridin-2-yl)methyl)-4-fluoro-N-(3-fluorophenyl)-1-(1-methylazetidine-3-yl)piperidine-4-carboxamide] | 885 fold | 32.2 | 28500
9 | COCCC(=O)N1CC(F)(C(=O)N(Cc2ccc(-c3nnc(C(F)F)o3)cn2)c2cccc(F)c2)C1 [Compound 3167, N-((5-(5-(difluoromethyl)-1,3,4-oxadiazol-2-yl)pyridin-2-yl)methyl)-3-fluoro-N-(3-fluorophenyl)-1-(3-methoxypropanoyl)azetidine-3-carboxamide] | – | – | > 50000
10 | O=C(N(Cc1ccc(-c2nnc(C(F)F)o2)cc1F)c1ccccc1)C1(F)CCN(C2CCC2)CC1 [Compound 2868, 1-cyclobutyl-N-(4-(5-(difluoromethyl)-1,3,4-oxadiazol-2-yl)-2-fluorobenzyl)-4-fluoro-N-phenylpiperidine-4-carboxamide] | – | – | > 20000
11 | O=C(N1CCC(F)(C(=O)N(Cc2ccc(-c3nnc(C(F)F)o3)cc2F)c2ccccc2)CC1)C(F)(F)F [Compound 3441, N-(4-(5-(difluoromethyl)-1,3,4-oxadiazol-2-yl)-2-fluorobenzyl)-4-fluoro-N-phenyl-1-(2,2,2-trifluoroacetyl)piperidine-4-carboxamide] | – | – | > 50000

Continued, values first:

Row | HDAC6 selectivity (fold) (human recombinant HDAC6) | IC50 (human recombinant HDAC6) [nM] | IC50 (human recombinant HDAC1) [nM] | Compound
12 | 242 fold | 85.7 | 20800 | CN1CC(F)(C(=O)N(Cc2ccc(-c3nnc(C(F)F)o3)cn2)c2cccc(F)c2)C1 [Compound 3047, N-((5-(5-(difluoromethyl)-1,3,4-oxadiazol-2-yl)pyridin-2-yl)methyl)-3-fluoro-N-(3-fluorophenyl)-1-methylazetidine-3-carboxamide]
13 | 931 fold | 53.7 | > 50000 | CCN1CCC(N2CC(F)(C(=O)N(Cc3ccc(-c4nnc(C(F)F)o4)cn3)c3ccccc3)C2)CC1 [Compound 3111, N-((5-(5-(difluoromethyl)-1,3,4-oxadiazol-2-yl)pyridin-2-yl)methyl)-1-(1-ethylpiperidin-4-yl)-3-fluoro-N-phenylazetidine-3-carboxamide]
14 | 1,650 fold | 30.3 | > 50000 | O=C(C1CCC1)N1CC(F)(C(=O)N(Cc2ccc(-c3nnc(C(F)F)o3)cn2)c2ccccc2)C1 [Compound 3159, 1-(cyclobutanecarbonyl)-N-((5-(5-(difluoromethyl)-1,3,4-oxadiazol-2-yl)pyridin-2-yl)methyl)-3-fluoro-N-phenylazetidine-3-carboxamide]
15 | 2,192 fold | 22.8 | > 50000 | O=C(N(Cc1ccc(-c2nnc(C(F)F)o2)cn1)c1cccc(F)c1)C1(F)CN(C2CCSCC2)C1 [Compound 3172, N-((5-(5-(difluoromethyl)-1,3,4-oxadiazol-2-yl)pyridin-2-yl)methyl)-3-fluoro-N-(3-fluorophenyl)-1-(tetrahydro-2H-thiopyran-4-yl)azetidine-3-carboxamide]
16 | 943 fold | 53 | > 50000 | CCCN1CC(F)(C(=O)N(Cc2ccc(-c3nnc(C(F)F)o3)cn2)c2ccccc2)C1 [Compound 3002, N-((5-(5-(difluoromethyl)-1,3,4-oxadiazol-2-yl)pyridin-2-yl)methyl)-3-fluoro-N-phenyl-1-propylazetidine-3-carboxamide]
17 | 2,032 fold | 24.6 | > 50000 | CN(C)CCC(=O)N1CC(F)(C(=O)N(Cc2ccc(-c3nnc(C(F)F)o3)cn2)c2ccccc2)C1 [Compound 3006, N-((5-(5-(difluoromethyl)-1,3,4-oxadiazol-2-yl)pyridin-2-yl)methyl)-1-(3-(dimethylamino)propanoyl)-3-fluoro-N-phenylazetidine-3-carboxamide]
18 | – | – | > 50000 | O=C(N(Cc1ccc(-c2nnc(C(F)F)o2)cn1)c1cccc(F)c1)C1(F)CN(C2CCCC2)C1 [Compound 3051, 1-cyclopentyl-N-((5-(5-(difluoromethyl)-1,3,4-oxadiazol-2-yl)pyridin-2-yl)methyl)-3-fluoro-N-(3-fluorophenyl)azetidine-3-carboxamide]
